{"source": "patent US20090004360A1", "about": "“Taste Potentiator Compositions in Oral Delivery Systems” (CADBURY ADAMS USA LLC, priority 2007, published 2009)", "origin": "cited, not measured here", "key": {"[1]": {"test": "not given", "remark": "listed apart in the source"}}, "note": "Peptide text beside a SMILES is read from it.", "data": [{"smiles": "O=C(O)c1ccc(O)cc1O", "note": "[2,4-DHB, 2,4-Dihydroxybenzoic acid]", "values": [{"measurement": "effect on sweetness of a sucrose solution", "setting": "0.2% added to a 5% sucrose solution, Canadian Patent No. 1208966", "result": "increase in sweetness"}, {"measurement": "effect on the sweetness intensity of both sucralose and aspartame", "setting": "FIGS. 1 and 2 and Tables 1 and 2 of U.S. Pat. No. 6,461,658", "result": "slightly inhibitory effect"}, {"measurement": "effect on sweetness of aspartame", "setting": "used with aspartame, WO99/15032", "result": "increase sweetness synergistically"}, {"measurement": "length of time during which sucralose sweetness is perceived", "setting": "with sucralose, U.S. Pat. No. 6,461,658", "result": "significantly reducing the length of time"}]}, {"smiles": "O=C(O)c1cccc(O)c1", "note": "[Example 3-HB, 3-hydroxybenzoic acid]", "values": [{"measurement": "effect on sweetness of sucrose, aspartame and saccharin", "setting": "pH 2.0 to 5.5, European Patent No. 0132444 and U.S. Pat. No. 4,627,987", "result": "enhance sweetness"}]}, {"smiles": "OCC(O)CO", "note": "[Glycerin]", "values": [{"measurement": "sweetness relative to cane sugar", "setting": "[1]; in vivo", "result": "about 60%"}]}, {"smiles": "COC(=O)[C@H](Cc1ccccc1)NC(=O)[C@@H](N)CC(=O)O", "note": "[aspartame, L-aspartyl-L-phenylalanine methyl ester] (HELM PEPTIDE1{D.F.[CO[*:1]]}$$$$V2.0)", "values": [{"measurement": "sweetness relative to sucrose", "setting": "[1]; recognized value, 0.05 g in 100 ml isosweet to 10 g sucrose in 100 ml", "result": 200, "unit": "times"}]}]}
